Assay [1] deals with Bfl-1. The following applies: ref Barile et al., 2017; cited from earlier work.
Assay [2] has as its system SKMEL28 melanoma cell line. The assay is described as follows: Cell apoptosis assay. The format is cell-based. As to conditions: IncuCyte Cytotox Green, Total Green Object Integrated Intensity; 30 h post-treatment; triplicates; preliminary assay.

Regarding `CC1(C)CCC(CN2CCN(c3ccc(C(=O)NS(=O)(=O)c4ccc(NCC5CCOCC5)c([N+](=O)[O-])c4)c(Oc4cnc5[nH]ccc5c4)c3)CC2)=C(c2ccc(Cl)cc2)C1` [ABT199], the “Activity against Bfl-1” value in assay [1] is “inactive against Bfl-1”. The “Induction of apoptosis / cell death in SKMEL28 cells” value in assay [2] is “inactive at the concentrations tested”.
